# Patent US20260364124A1, “ANTI-C. DIFFICILE SMALL MOLECULE METABOLITES FROM DIET AND GUT MICROBIOME” (The Children's Medical Center Corporation, priority 2023, published 2026)
# Test system: B. uniformis
# Test: In vitro aglycone liberation by wildtype B. uniformis (LC-MS)
# Set-up: species or system Bacteroides uniformis ATCC 8492
# Settings: role: substrate; B. uniformis cultivated with polydatin (FIG. 2)
# Description: Comparative LC-MS EICs (Extracted Ion Chromatogram) of methanol-water extracts of bacterial cultures supplemented with each polyphenolic glycoside after eight hours are provided. The trace labeled “A” corresponds to the EIC of each glycoside, and the trace labeled “B” corresponds to the EIC of each aglycone. The portion of the trace “B” peak overlapping the trace “A” peak corresponds to the aglycone detected from fragmentation of the glycoside at the ionization source and is a technical artifact.
# FIGS. 5A and 5B show microbiome-mediated polyphenol aglycone liberation. […] Step 2: Spent media was filter-sterilized. Step 3: C. difficile was grown in spent media from either vehicle or polydatin (top).
# In vitro aglycone liberation: All B. uniformis strains were grown on brain-heart-infusion supplemented with hemin (50 mg/L) and vitamin K1 (0.25 mg/L) (BHIS) agar plates or in basal media (BSG; proteose peptone (20 g/L), yeast (5 g/L), NaCl (5 g/L), glucose (5 g/L), potassium phosphate dibasic (5 g/L), cysteine (0.5 g/L), hemin (50 mg/L), and vitamin K1 (0.25 mg/L). All isolates were recovered on and grown in pre-reduced media in a Coy anaerobic chamber (Coy Labs).
# To assess the capacity of Bacteroides to liberate aglycones from their parent polyphenolic glycosides, B. uniformis ATCC 8492 WT and AgshD were recovered on a BHIS agar plate and incubated anaerobically at 37 °C for 48 h. A starter culture (1 mL) of BSG was inoculated with each isolate and grown for 15 h. This starter culture was then used to inoculate a BSG sub-culture (1 mL) at a final dilution of 1:10. […]
# For polyphenolic glycoside and aglycone-containing samples, samples were dried under nitrogen flow and resuspended in 50 μl of methanol 50% in water. […] Samples were quantified on a QEplus mass spectrometer coupled to an Ultimate 3000 LC (Thermo fisher). […] Quantification was performed using Tracefinder (Thermo fisher), using the ratio of the area under the peak for each compound and of the internal standard, using the accurate mass of the [M−H]^− ions.
structure (smiles),measurement,value
OC[C@H]1O[C@@H](Oc2cc(O)cc(/C=C/c3ccc(O)cc3)c2)[C@H](O)[C@@H](O)[C@@H]1O [polydatin],liberation of resveratrol from polydatin,liberated resveratrol
